Converted amounts (≈) assume the structure as drawn.

In this assay the test system is superoxide radicals (O2^-) released from the peritoneal macrophage cells of guinea pig. Put plainly: Inhibitory effect against superoxide radicals (O2^-) released from the peritoneal macrophage cells of guinea pig by stimulation. In kind it is cell-based. Conditions: Cavia porcellus, Peritoneal macrophage cell; guinea pig peritoneal macrophages 2×10^6 cells/ml; FMLP 10^-7 M; cytochrome C reduction, OD550; 37° C.; read-out: 50% inhibitory concentration (IC50), superoxide radical release. The procedure:
Inhibitory effect against superoxide radicals (O2^-) released from the peritoneal macrophage cells of guinea pig by stimulation
Mineral oil (15 ml) was intraperitoneally administered to a guinea pig, then 96 hours after the administration, the peritoneal macrophage cells were samples.
Superoxide redicals (O2^-) were determined by means of reduction of cytochrome C method according to the procedure described in an article by T. Matsumoto, K. Takeshige and S. Minakami: Biochemical and Biophysical Research Communications, Vol. 88, No. 3, pp. 974-979, (1979).
The peritoneal macrophage cells were added to make the final concentration of 2×10^6 cells/ml into 1 ml of 80 μM-cytochome C solution, and the test compound of indole derivative of the present invention was added thereto to make the test group sample. On the other hand, water was added in place of the indole derivative of the present invention to make the control group sample. Each of the test group sample and the control group sample was subjected to pure incubaiton at 37° C. for 1 minute.
As to the stimulating agent for releasing superoxide radicals (O2^-), FMLP (formylmethionyl leucyl phenylalanine) was added to make the final concentration thereof to 10^-7 M, to each of the test group sample and the control group sample. Then both samples were subjected to additional reaction by incubation for 1 minute.
Difference of the optical absorbances measured at 550 nm (OD550) of both test group and control group samples were determined, and the 50% inhibitory concentration (IC50) was obtained by calculating as the ratio of OD550 of the test group sample to that of the control group sample.
Consider `COc1nc(CC(C)C)c(=O)[nH]c1Cc1c[nH]c2ccccc12` [Compound A-16], for which the IC50 came out at 50 mg/L (≈ 161 µM).

Turning to `COC1=N[C@@H](CC(C)C)C(=O)N/C1=C\c1c[nH]c2ccccc12` [Compound A-17, (3S,Z)-6-(Indol-3-yl)methylidene-3-isobutyl-5-methoxy-1,2,3,6-tetrahydropyrazin-2-one], the IC50 amounted to 15 mg/L (≈ 48.2 µM).

Consider `CC(C)C[C@H]1C(=O)N[C@@H](Cc2c[nH]c3ccccc23)C(=O)N1O` [Compound A-29a, (3S,6S)-1-Hydroxy-3-(indol-3-yl)methyl-6-isobutylpiperazine-2,5-dione], for which the IC50 was 50 mg/L (≈ 159 µM). For `CC(C)C[C@@H]1C(=O)N[C@@H](Cc2c[nH]c3ccccc23)C(=O)N1O` [Compound A-30a, (3S,6R)-1-Hydroxy-3-(indol-3-yl)methyl-6-isobutylpiperazine-2,5-dione] the value was 10 mg/L (≈ 31.7 µM); for `CC(C)Cc1c(Cl)nc(Cc2c[nH]c3ccccc23)c(=O)n1O` [Compound A-38, 5-chloro-1-hydroxy-3-(indol-3-yl)methyl-6-isobutyl-1,2-dihydropyrazin-2-one], 6 mg/L (≈ 18.1 µM). For `COc1c(Cc2c[nH]c3ccccc23)nc(Cl)c(CC(C)C)[n+]1[O-]` [Compound A-46, 3-chloro-5-(indol-3-yl)methyl-2-isobutyl-6-methoxypyrazine-1-oxide] the value was 30 mg/L (≈ 86.7 µM). For `COC(=O)n1cc(Cc2nc(Cl)c(CC(C)C)n(OC)c2=O)c2ccccc21` [Compound A-47, 5-Chloro-6-isobutyl-3-[(1-methoxycarbonyl)indol-3-yl]methyl-1-methoxy-12,-dihydropyrazin-2-one] the value was 25 mg/L (≈ 61.9 µM).

For `CC(C)Cc1c(=O)[nH]c(Cc2c[nH]c3ccccc23)c(N)[n+]1[O-]` [Compound A-62, 5-amino-6-(indol-3-yl)methyl-3-isobutyl-1,2-dihydropyrazin-2-one 4-oxide], the IC50 amounted to 12 mg/L (≈ 38.4 µM). On to `CC(=O)Nc1c(Cc2c[nH]c3ccccc23)[nH]c(=O)c(CC(C)C)[n+]1[O-]` [Compound A-63, 5-acetamino-6-(indol-3-yl)methyl-3-isobutyl1,2-dihydropyrazin-2-one 4-oxide], for which the IC50 was 30 mg/L (≈ 84.6 µM).

As to `CCc1c(Cc2c[nH]c3ccccc23)[nH]c(=O)c(CC(C)C)[n+]1[O-]` [Compound A-82b, 5-Ethyl-6-(indol-3-yl)methyl-3-isobutyl-1,2-dihydropyrazin-2-one 4-oxide], the IC50 is 12 mg/L (≈ 36.9 µM). `COc1c(Cc2c[nH]c3ccccc23)[nH]c(=O)c(Cc2ccccc2)[n+]1[O-]` [Compound E-6d, 3-Benzyl-6-(indol-3-yl)methyl-5-methoxy-1,2-dihydropyrazin-2-one 4-oxide]: the IC50 amounted to 5 mg/L (≈ 13.8 µM). Consider `COc1c(Cc2c[nH]c3ccccc23)[nH]c(=O)c(CC2CCCCC2)[n+]1[O-]` [Compound E-6f, 3-Cyclohexylmethyl-6-(indol-3-yl)methyl-5-methoxy-1,2-dihydropyrazin-2-one 4-oxide], for which the IC50 amounted to 4 mg/L (≈ 10.9 µM). In the case of `COc1c(Cc2c[nH]c3ccccc23)[nH]c(=O)c(Cc2c[nH]c3ccccc23)[n+]1[O-]` [Compound E-6g, 3,6-Di(indol-3-yl)methyl-5-methoxy-1,2-dihydropyrazin-2-one 4-oxide] it was 1.5 mg/L (≈ 3.75 µM); in that of `CCOc1c(Cc2c[nH]c3ccccc23)[nH]c(=O)c(CC(C)C)[n+]1[O-]` [Compound E-12, 5-Ethoxy-6-(indol-3-yl)methyl-3-isobutyl-1,2-dihydropyrazin-2-one 4-oxide], 8 mg/L (≈ 23.4 µM). With `CC(C)Cc1c(=O)[nH]c(-c2c[nH]c3ccccc23)c(Cl)[n+]1[O-]` [Compound E-30, 5-Chloro-6-(indol-3-yl)-3-isobutyl-1,2-dihydropyrazin-2-one 4-oxide], the IC50 is 8 mg/L (≈ 25.2 µM). As for `COc1c(Cc2c[nH]c3ccc(F)cc23)[nH]c(=O)c(CC(C)C)[n+]1[O-]` [Compound E-34a, 6-[(5-Fluoro)indol-3-yl]methyl-3-isobutyl-5-methoxy-1,2-dihydropyrazin-2-one 4-oxide], the IC50 is 10 mg/L (≈ 29 µM). In the case of `COc1c(Cc2c[nH]c3ccc(Br)cc23)[nH]c(=O)c(CC(C)C)[n+]1[O-]` [Compound E-34c, 6-[(5-Bromo)indol-3-yl]methyl-3-isobutyl-5-methoxy-1,2-dihydropyrazin-2-one 4-oxide] it was 5 mg/L (≈ 12.3 µM); in that of `COc1c(Cc2c[nH]c3c(C)cccc23)[nH]c(=O)c(CC(C)C)[n+]1[O-]` [Compound E-34f, 3-Isobutyl-5-methoxy-6-[(7-methyl)indol-3-yl]methyl-1,2-dihydropyrazin-2-one 4-oxide], 7 mg/L (≈ 20.5 µM). In the case of `COc1ccc2[nH]cc(Cc3[nH]c(=O)c(CC(C)C)[n+]([O-])c3OC)c2c1` [Compound E-34h, 3-Isobutyl-5-methoxy-6-[(5-methoxy)indol-3-yl]methyl-1,2-dihydropyrazin-2-one 4-oxide] it was 5 mg/L (≈ 14 µM). For `COc1c(Cc2c[nH]c3ccc(O)cc23)[nH]c(=O)c(CC(C)C)[n+]1[O-]` [Compound E-34j, 6-[(5-Hydroxy)indol-3-yl]methyl-3-isobutyl-5-methoxy-1,2-dihydropyrazin-2-one 4-oxide] the value was 10 mg/L (≈ 29.1 µM). As to `COc1ccc2[nH]c(C)c(Cc3[nH]c(=O)c(CC(C)C)[n+]([O-])c3OC)c2c1` [Compound E-34k, 3-Isobutyl-5-methoxy-6-[(5-methoxy-2-methyl)indol-3-yl]methyl-1,2-dihydropyrazin-2-one 4-oxide], the IC50 is 2 mg/L (≈ 5.38 µM). In the case of `COc1c(Cn2ccc3ccccc32)[nH]c(=O)c(CC(C)C)[n+]1[O-]` [Compound E-36p, 6-(Indol-1-yl)methyl-3-isobutyl-5-methoxy-1,2-dihydropyrazin-2-one 4-oxide], the IC50 stood at 8 mg/L (≈ 24.4 µM). In the case of `CC(C)Cc1c(=O)[nH]c(Cc2c[nH]c3ccccc23)c(OC(C)C)[n+]1[O-]` [Compound E-46a, 6-(Indol-3-yl)methyl-3-isobutyl-5-isopropoxy-1,2-dihydroipyrazin-2-one 4-oxide] it was 3 mg/L (≈ 8.44 µM); in that of `CC(C)Cc1c(=O)[nH]c(Cc2c[nH]c3ccccc23)c(Cl)[n+]1[O-]` [Compound E-57a, 5-Chloro-6-(indol-3-yl)methyl-3-isobutyl-1,2-dihydropyrazin-2-one 4-oxide], 10 mg/L (≈ 30.1 µM).

As to `CSc1c(Cc2c[nH]c3ccccc23)[nH]c(=O)c(CC(C)C)[n+]1[O-]` [Compound E-57c, 6-(Indol-3-yl)methyl-3-isobutyl-5-methylthio-1,2-dihydropyrazin-2-one 4-oxide], the IC50 is 10 mg/L (≈ 29.1 µM).

In the case of `CC(C)Cc1c(=O)[nH]c(Cc2c[nH]c3ccccc23)c(S(C)(=O)=O)[n+]1[O-]` [Compound E-57d, 6-(Indol-3-yl)methyl-3-isobutyl-5-methylsulfonyl-1,2-dihydropyrazin-2-one 4-oxide], the IC50 was determined as 10 mg/L (≈ 26.6 µM). As for `CC(C)Cc1c(=O)[nH]c(Cc2c[nH]c3ccccc23)c([S+](C)[O-])[n+]1[O-]` (stereo not shown) [Compound E-58, 6-(Indol-3-yl)methyl-3-isobutyl-5-methylsulfinyl-1,2-dihydropyrazin-2-one 4-oxide], the IC50 turned out to be 6 mg/L (≈ 16.7 µM). `COc1c(Cc2cn(C)c3ccccc23)nc(OCc2ccccc2)c(CC(C)C)[n+]1[O-]` [Compound E-67a, 3-Benzyloxy-2-isobutyl-5-[(1-methyl)indol-3-yl]methyl-6-methoxypyrazine 1-oxide]: the IC50 turned out to be 10 mg/L (≈ 23.2 µM).

Source of the values: US5238938A, “Indole derivatives” (Otsuka Pharmaceutical Co., Ltd., priority 1989, dated 1993).
